# Test results reported in patent publication US4287206A, “Halogen derivatives of 8-hydroxycarboxylic acids; the processes for their preparation and medicaments in which they are present” (priority 1978, dated 1981).
# Tests used:
# [1] = tested on: mice; experiment: Anti-reserpine activity in mice (reserpine hypothermia); format: in vivo; settings: reserpine 2.5 mg.kg^-1 i.p. 4 h before
# Method: Anti-reserpine activity in mice
# At time 0, the mice receive reserpine (2.5 mg.kg^-1) by intraperitoneal administration.
# After 4 hours, when the hypothermia is significant (30 to 31°C.), the substance to be studied is administered intraperitoneally or orally. The rectal temperature is measured, using a probe, carrying a thermoelectric couple, inserted to a constant depth, every 30 minutes for 2 hours.
# [2] = tested on: mice; experiment: Anti-oxotremorine activity in mice (hypothermia induced by oxotremorine); format: in vivo; settings: oxotremorine 0.5 mg.kg^-1 i.p.
# Method: Anti-oxotremorine activity in mice
# At time 0, the mice receive oxotremorine (0.5 mg.kg^-1) by intraperitoneal administration; after 30 minutes, either distilled water or the medicament according to the invention, obtained in accordance with Example I, is administered to the mice intraperitoneally or orally.
# The mice are then observed and the trembling is rated from 0 to 3 as a function of its intensity, every 10 minutes for 30 minutes. Moreover, the existence of peripheral symptoms (tears, hypersialosis and defections) is observed for 2 hours, in the presence or absence of trembling. The rectal temperature is measured every 30 minutes for 2 hours, after administration of oxotremorine.
# [3] = 4 mg/kg intraperitoneal, 120 min
# [4] = 8 mg/kg intraperitoneal, 30 min
# [5] = 8 mg/kg intraperitoneal, 60 min
# [6] = 8 mg/kg intraperitoneal, 90 min
# [7] = 8 mg/kg intraperitoneal, 120 min
# [8] = 16 mg/kg intraperitoneal, 30 min
# [9] = 16 mg/kg intraperitoneal, 60 min
# [10] = 16 mg/kg intraperitoneal, 90 min
# [11] = 16 mg/kg intraperitoneal, 120 min
# [12] = 32 mg/kg intraperitoneal, 30 min
# [13] = 32 mg/kg intraperitoneal, 60 min
# [14] = 32 mg/kg intraperitoneal, 90 min
# [15] = 32 mg/kg intraperitoneal, 120 min
compound,measurement,setting,value
"CC1CC(c2ccc(Cl)cc2)C(c2ccccc2)C(=O)O1 (stereo not drawn) [Example I, trans-4-(4'-chlorophenyl)-6-methyl-3-phenyl-3,4,5,6-tetrahydropyrone-2]",Rectal temperatures °C. ± SD,[1]; [3],32.2 ± 0.46 °C
same,Rectal temperatures °C. ± SD,[1]; [4],33.1 ± 0.32 °C
same,Rectal temperatures °C. ± SD,[1]; [5],34.1 ± 0.24 °C
same,Rectal temperatures °C. ± SD,[1]; [6],34.0 ± 0.38 °C
same,Rectal temperatures °C. ± SD,[1]; [7],33.6 ± 0.49 °C
same,Rectal temperatures °C. ± SD,[1]; [8],35.3 ± 0.51 °C
same,Rectal temperatures °C. ± SD,[1]; [9],35.7 ± 0.34 °C
same,Rectal temperatures °C. ± SD,[1]; [10],35.3 ± 0.37 °C
same,Rectal temperatures °C. ± SD,[1]; [11],35.0 ± 0.44 °C
same,Rectal temperatures °C. ± SD,[1]; [12],34.8 ± 0.48 °C
same,Rectal temperatures °C. ± SD,[1]; [13],36.2 ± 0.38 °C
same,Rectal temperatures °C. ± SD,[1]; [14],35.6 ± 0.38 °C
same,Rectal temperatures °C. ± SD,[1]; [15],35.7 ± 0.37 °C
same,Rectal temperatures °C.,"[2]; 1 mg/kg oral, 30 min",29.8 ± 0.40 °C
same,Rectal temperatures °C.,"[2]; 1 mg/kg oral, 60 min",27.8 ± 0.65 °C
same,Rectal temperatures °C.,"[2]; 1 mg/kg oral, 90 min",27.8 ± 1.36 °C
same,Rectal temperatures °C.,"[2]; 1 mg/kg oral, 120 min",28.0 ± 1.65 °C
same,Rectal temperatures °C.,"[2]; 2 mg/kg intraperitoneal, 30 min",30.8 ± 0.43 °C
same,Rectal temperatures °C.,"[2]; 2 mg/kg intraperitoneal, 60 min",29.1 ± 0.46 °C
same,Rectal temperatures °C.,"[2]; 2 mg/kg intraperitoneal, 90 min",29.4 ± 0.52 °C
same,Rectal temperatures °C.,"[2]; 2 mg/kg intraperitoneal, 120 min",29.9 ± 0.77 °C
same,Rectal temperatures °C.,"[2]; 2 mg/kg oral, 30 min",31.5 ± 0.43 °C
same,Rectal temperatures °C.,"[2]; 2 mg/kg oral, 60 min",31.0 ± 0.71 °C
same,Rectal temperatures °C.,"[2]; 2 mg/kg oral, 90 min",31.2 ± 0.86 °C
same,Rectal temperatures °C.,"[2]; 2 mg/kg oral, 120 min",31.9 ± 1.14 °C
same,Rectal temperatures °C.,"[2]; 4 mg/kg intraperitoneal, 30 min",30.2 ± 0.36 °C
same,Rectal temperatures °C.,"[2]; 4 mg/kg intraperitoneal, 60 min",31.8 ± 0.42 °C
same,Rectal temperatures °C.,"[2]; 4 mg/kg intraperitoneal, 90 min",33.5 ± 0.49 °C
same,Rectal temperatures °C.,[2]; [3],35.7 ± 0.40 °C
same,Rectal temperatures °C.,"[2]; 4 mg/kg oral, 30 min",31.8 ± 0.38 °C
same,Rectal temperatures °C.,"[2]; 4 mg/kg oral, 60 min",31.0 ± 0.34 °C
same,Rectal temperatures °C.,"[2]; 4 mg/kg oral, 90 min",31.6 ± 0.91 °C
same,Rectal temperatures °C.,"[2]; 4 mg/kg oral, 120 min",32.4 ± 0.89 °C
same,Rectal temperatures °C.,[2]; [4],32.1 ± 0.52 °C
same,Rectal temperatures °C.,[2]; [5],31.3 ± 0.52 °C
same,Rectal temperatures °C.,[2]; [6],32.2 ± 0.61 °C
same,Rectal temperatures °C.,[2]; [7],33.8 ± 0.91 °C
same,Rectal temperatures °C.,"[2]; 8 mg/kg oral, 30 min",32.6 ± 0.32 °C
same,Rectal temperatures °C.,"[2]; 8 mg/kg oral, 60 min",32.4 ± 0.29 °C
same,Rectal temperatures °C.,"[2]; 8 mg/kg oral, 90 min",32.9 ± 0.38 °C
same,Rectal temperatures °C.,"[2]; 8 mg/kg oral, 120 min",33.8 ± 0.56 °C
same,Rectal temperatures °C.,[2]; [8],32.9 ± 0.46 °C
same,Rectal temperatures °C.,[2]; [9],32.0 ± 0.65 °C
same,Rectal temperatures °C.,[2]; [10],32.8 ± 0.60 °C
same,Rectal temperatures °C.,[2]; [11],35.9 ± 0.81 °C
same,Rectal temperatures °C.,"[2]; 16 mg/kg oral, 30 min",31.9 ± 0.53 °C
same,Rectal temperatures °C.,"[2]; 16 mg/kg oral, 60 min",31.9 ± 0.49 °C
same,Rectal temperatures °C.,"[2]; 16 mg/kg oral, 90 min",32.8 ± 0.70 °C
same,Rectal temperatures °C.,"[2]; 16 mg/kg oral, 120 min",33.6 ± 0.97 °C
same,Rectal temperatures °C.,[2]; [12],32.0 ± 0.70 °C
same,Rectal temperatures °C.,[2]; [13],31.2 ± 0.73 °C
same,Rectal temperatures °C.,[2]; [14],32.2 ± 0.85 °C
same,Rectal temperatures °C.,[2]; [15],33.2 ± 1.2 °C
same,Rectal temperatures °C.,"[2]; 32 mg/kg oral, 30 min",33.0 ± 0.60 °C
same,Rectal temperatures °C.,"[2]; 32 mg/kg oral, 60 min",32.7 ± 0.63 °C
same,Rectal temperatures °C.,"[2]; 32 mg/kg oral, 90 min",32.8 ± 0.62 °C
same,Rectal temperatures °C.,"[2]; 32 mg/kg oral, 120 min",33.7 ± 0.95 °C
same,Rectal temperatures °C.,"[2]; 64 mg/kg intraperitoneal, 30 min",34.0 ± 0.87 °C
same,Rectal temperatures °C.,"[2]; 64 mg/kg intraperitoneal, 60 min",33.0 ± 1.2 °C
same,Rectal temperatures °C.,"[2]; 64 mg/kg intraperitoneal, 90 min",33.7 ± 1.15 °C
same,Rectal temperatures °C.,"[2]; 64 mg/kg intraperitoneal, 120 min",34.5 ± 1.0 °C
same,Rectal temperatures °C.,"[2]; 64 mg/kg oral, 30 min",32.2 ± 0.32 °C
same,Rectal temperatures °C.,"[2]; 64 mg/kg oral, 60 min",31.7 ± 0.52 °C
same,Rectal temperatures °C.,"[2]; 64 mg/kg oral, 90 min",32.8 ± 0.73 °C
same,Rectal temperatures °C.,"[2]; 64 mg/kg oral, 120 min",34.1 ± 0.62 °C
same,Rectal temperatures °C.,"[2]; 128 mg/kg oral, 30 min",34.8 ± 0.80 °C
same,Rectal temperatures °C.,"[2]; 128 mg/kg oral, 60 min",34.9 ± 0.59 °C
same,Rectal temperatures °C.,"[2]; 128 mg/kg oral, 90 min",36.2 ± 0.82 °C
same,Rectal temperatures °C.,"[2]; 128 mg/kg oral, 120 min",37.1 ± 0.77 °C
same,Rectal temperatures °C.,"[2]; 256 mg/kg oral, 30 min",32.4 ± 0.63 °C
same,Rectal temperatures °C.,"[2]; 256 mg/kg oral, 60 min",31.3 ± 0.73 °C
same,Rectal temperatures °C.,"[2]; 256 mg/kg oral, 90 min",32.4 ± 1.07 °C
same,Rectal temperatures °C.,"[2]; 256 mg/kg oral, 120 min",33.9 ± 1.30 °C
